Test results taken from patent publication EP4707280A1, “1,4-CINEOLE DERIVATIVE AND INTERMEDIATE THEREOF, HERBICIDE CONTAINING SAID DERIVATIVE AS ACTIVE INGREDIENT, METHOD FOR USING HERBICIDE, AND METHOD FOR PREPARING AGROCHEMICAL COMPOSITION” (HOKKO CHEMICAL INDUSTRY CO., LTD., priority 2023, dated 2024).

Legend:
Type in all cases: in vivo
Echinochloa crus-galli [1] = experiment: Test Example 7: herbicidal effect test by soil application in upland field (low dose); conditions: Echinochloa crus-galli, 7.5 g per 10 ares, sprayed one day after sowing, 14 days after application, read-out: weed inhibition rate
In short: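 Pre-emergence soil treatment: 7.5 g a.i. per 10 a applied as water-diluted emulsifiable concentrate (100 L/10 a) to soil surface one day post-sowing in alluvial loam. Inhibition (%) assessed at 14 days, duplicate pots per concentration.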

[2] = test system: Echinochloa crus-galli var. formosensis; experiment: Test Example 6: herbicidal effect test by application during growth period of paddy rice (low dose); conditions: Echinochloa crus-galli; 7.5 g per 10 ares; applied seven days after sowing, flooded pots; 14 days after application; read-out: weed inhibition rate
In short: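 Formulated compound, diluted in water, was dropped onto flooded pots seven days post-sowing at 7.5 g a.i. per 10 ares. Seeds had been sown 0-1 cm deep in puddled paddy soil under ~3 cm water in a glass greenhouse. Inhibition (%) assessed at 14 days; duplicate pots.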

Digitaria ciliaris [3] = experiment: Test Example 8: herbicidal effect test by stem and leaf treatment in upland field (low dose); conditions: Digitaria ciliaris; 7.5 g per 10 ares; sprayed seven days after sowing, upland soil; 14 days after application; read-out: weed inhibition rate
Echinochloa crus-galli [4] = experiment: as above; conditions: Echinochloa crus-galli; 7.5 g per 10 ares; sprayed seven days after sowing, upland soil; 14 days after application; read-out: weed inhibition rate
Monochoria vaginalis = experiment: Test Example 1: herbicidal effect test by soil application in paddy rice; conditions: Pontederia vaginalis, soil, 336 h; 120 g active ingredient per 10 ares; applied immediately after sowing, flooded pots; 14 days after application; read-out: weed inhibition rate
In short: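 Inhibition rate (%) read 14 days after treatment, duplicate pots. Water-diluted emulsifiable concentrate was applied by dropper at 120 g active ingredient/10 ares right after sowing. Seeds (30 per species, 0–1 cm deep) went into puddled paddy soil kept flooded at about 3 cm in a greenhouse.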

Digitaria ciliaris [5] = experiment: Test Example 3: herbicidal effect test by soil application in upland field; conditions: Digitaria ciliaris, 120 g per 10 ares, sprayed one day after sowing, 14 days after application, read-out: weed inhibition rate
In short: (§1)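 Weed inhibition (%) was assessed 14 days after treatment, in duplicate per concentration group. Seeds had been mixed into the upper 1 cm of upland alluvial loam, and the soil surface was sprayed one day later with the diluted emulsifiable concentrate at 120 g active ingredient per 10 ares.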

Echinochloa crus-galli [6] = experiment: as above; conditions: Echinochloa crus-galli, 120 g per 10 ares, sprayed one day after sowing, 14 days after application, read-out: weed inhibition rate
In short: as §1

Digitaria ciliaris [7] = experiment: Test Example 4: herbicidal effect test by stem and leaf treatment in upland field; conditions: Digitaria ciliaris; 120 g per 10 ares; sprayed seven days after sowing, upland soil; 14 days after application; read-out: weed inhibition rate
Echinochloa crus-galli [8] = experiment: as above; conditions: Echinochloa crus-galli; 120 g per 10 ares; sprayed seven days after sowing, upland soil; 14 days after application; read-out: weed inhibition rate
[9] = test system: Echinochloa crus-galli var. formosensis; experiment: Test Example 1: herbicidal effect test by soil application in paddy rice; conditions: Echinochloa crus-galli, soil, 336 h; 120 g active ingredient per 10 ares; applied immediately after sowing, flooded pots; 14 days after application; read-out: weed inhibition rate
In short: (§2)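 Pre-emergence paddy soil application, 120 g a.i./10 a, emulsifiable concentrate diluted in water, applied by dropper right after sowing. Seeds (30/species) sown 0–1 cm in puddled, fertilized soil; flooded ~3 cm; glass greenhouse.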

Scirpus juncoides = experiment: as above; conditions: Schoenoplectiella juncoides, soil, 336 h; 120 g active ingredient per 10 ares; applied immediately after sowing, flooded pots; 14 days after application; read-out: weed inhibition rate
In short: as §2

CC(C)[C@]12C[C@@H](OCc3c(F)cccc3F)[C@](C)(CC1C)O2 (stereo partly drawn) [1-111, (1S,2R,4R)-2-((2,6-difluorobenzyl)oxy)-4-isopropyl-1,5-dimethyl-7-oxabicyclo[2.2.1]heptane]
≥ 80%: inhibition at 75 g/ha (Echinochloa crus-galli [1]) | inhibition at 75 g/ha [2] | inhibition at 75 g/ha (Digitaria ciliaris [3]) | inhibition at 75 g/ha (Echinochloa crus-galli [4]) | pest or weed control at 1200 g/ha (Monochoria vaginalis) | inhibition at 1200 g/ha (Digitaria ciliaris [5]) | inhibition at 1200 g/ha (Echinochloa crus-galli [6]) | inhibition at 1200 g/ha (Digitaria ciliaris [7]) | inhibition at 1200 g/ha (Echinochloa crus-galli [8]) | pest or weed control at 1200 g/ha [9] | pest or weed control at 1200 g/ha (Scirpus juncoides)

CCC1C[C@]2(C)O[C@@]1(C(C)C)C[C@H]2OCc1ccccc1F (stereo partly drawn) [1-126, (1R,4S,5R)-2-ethyl-5-[(2-fluorobenzyl)oxy]-1-isopropyl-4-methyl-7-oxabicyclo[2.2.1]heptane]
≥ 80%: inhibition at 75 g/ha (Echinochloa crus-galli [1]) | inhibition at 75 g/ha [2] | inhibition at 75 g/ha (Digitaria ciliaris [3]) | inhibition at 75 g/ha (Echinochloa crus-galli [4]) | pest or weed control at 1200 g/ha (Monochoria vaginalis) | inhibition at 1200 g/ha (Digitaria ciliaris [5]) | inhibition at 1200 g/ha (Echinochloa crus-galli [6]) | inhibition at 1200 g/ha (Digitaria ciliaris [7]) | inhibition at 1200 g/ha (Echinochloa crus-galli [8]) | pest or weed control at 1200 g/ha [9] | pest or weed control at 1200 g/ha (Scirpus juncoides)

CO[C@H]1C[C@]2(C)O[C@@]1(C(C)C)C[C@H]2OCc1ccccc1F [1-156, (1S,2R,4R,5S)-2-((2-fluorobenzyl)oxy)-4-isopropyl-5-methoxy-1-methyl-7-oxabicyclo[2.2.1]heptane]
≥ 80%: inhibition at 75 g/ha (Echinochloa crus-galli [1]) | inhibition at 75 g/ha [2] | inhibition at 75 g/ha (Digitaria ciliaris [3]) | inhibition at 75 g/ha (Echinochloa crus-galli [4]) | pest or weed control at 1200 g/ha (Monochoria vaginalis) | inhibition at 1200 g/ha (Digitaria ciliaris [5]) | inhibition at 1200 g/ha (Echinochloa crus-galli [6]) | inhibition at 1200 g/ha (Digitaria ciliaris [7]) | inhibition at 1200 g/ha (Echinochloa crus-galli [8]) | pest or weed control at 1200 g/ha [9] | pest or weed control at 1200 g/ha (Scirpus juncoides)

CCO[C@H]1C[C@]2(C)O[C@@]1(C(C)C)C[C@H]2OCc1ccccc1F [1-183, (1S,2R,4R,5S)-5-ethoxy-2-[(2-fluorophenyl)methoxy]-1-methyl-4-isopropyl-7-oxabicyclo[2.2.1]heptane]
≥ 80%: inhibition at 75 g/ha (Echinochloa crus-galli [1]) | inhibition at 75 g/ha [2] | inhibition at 75 g/ha (Digitaria ciliaris [3]) | inhibition at 75 g/ha (Echinochloa crus-galli [4]) | pest or weed control at 1200 g/ha (Monochoria vaginalis) | inhibition at 1200 g/ha (Digitaria ciliaris [5]) | inhibition at 1200 g/ha (Echinochloa crus-galli [6]) | inhibition at 1200 g/ha (Digitaria ciliaris [7]) | inhibition at 1200 g/ha (Echinochloa crus-galli [8]) | pest or weed control at 1200 g/ha [9] | pest or weed control at 1200 g/ha (Scirpus juncoides)

Cc1ccc(CO[C@@H]2C[C@]3(C(C)C)O[C@@]2(C)C[C@@H]3Br)cc1 [1-681, (1S,2R,4R,5S)-5-bromo-1-methyl-2-[(4-methylphenyl)methoxy]-4-isopropyl-7-oxabicyclo[2.2.1]heptane]
≥ 80%: inhibition at 75 g/ha (Echinochloa crus-galli [1]) | inhibition at 75 g/ha [2] | inhibition at 75 g/ha (Digitaria ciliaris [3]) | inhibition at 75 g/ha (Echinochloa crus-galli [4]) | pest or weed control at 1200 g/ha (Monochoria vaginalis) | inhibition at 1200 g/ha (Digitaria ciliaris [5]) | inhibition at 1200 g/ha (Echinochloa crus-galli [6]) | inhibition at 1200 g/ha (Digitaria ciliaris [7]) | inhibition at 1200 g/ha (Echinochloa crus-galli [8]) | pest or weed control at 1200 g/ha [9] | pest or weed control at 1200 g/ha (Scirpus juncoides)

CC(C)[C@]12C[C@@H](OCc3cccc(F)c3)[C@](C)(C[C@@H]1Br)O2 [1-690, (1S,2R,4R,5S)-5-bromo-2-[(3-fluorophenyl)methoxy]-1-methyl-4-isopropyl-7-oxabicyclo[2.2.1]heptane]
≥ 80%: inhibition at 75 g/ha (Echinochloa crus-galli [1]) | inhibition at 75 g/ha [2] | inhibition at 75 g/ha (Digitaria ciliaris [3]) | inhibition at 75 g/ha (Echinochloa crus-galli [4]) | pest or weed control at 1200 g/ha (Monochoria vaginalis) | inhibition at 1200 g/ha (Digitaria ciliaris [5]) | inhibition at 1200 g/ha (Echinochloa crus-galli [6]) | inhibition at 1200 g/ha (Digitaria ciliaris [7]) | inhibition at 1200 g/ha (Echinochloa crus-galli [8]) | pest or weed control at 1200 g/ha [9] | pest or weed control at 1200 g/ha (Scirpus juncoides)

CC(C)[C@]12C[C@@H](OCc3ccc(F)cc3)[C@](C)(C[C@@H]1Br)O2 [1-691, (1S,2R,4R,5S)-5-bromo-2-[(4-fluorophenyl)methoxy]-1-methyl-4-isopropyl-7-oxabicyclo[2.2.1]heptane]
≥ 80%: inhibition at 75 g/ha (Echinochloa crus-galli [1]) | inhibition at 75 g/ha [2] | inhibition at 75 g/ha (Digitaria ciliaris [3]) | inhibition at 75 g/ha (Echinochloa crus-galli [4]) | pest or weed control at 1200 g/ha (Monochoria vaginalis) | inhibition at 1200 g/ha (Digitaria ciliaris [5]) | inhibition at 1200 g/ha (Echinochloa crus-galli [6]) | inhibition at 1200 g/ha (Digitaria ciliaris [7]) | inhibition at 1200 g/ha (Echinochloa crus-galli [8]) | pest or weed control at 1200 g/ha [9] | pest or weed control at 1200 g/ha (Scirpus juncoides)

CC(C)[C@]12C[C@@H](OCc3c(F)cccc3Cl)[C@](C)(C[C@@H]1Br)O2 [1-713, (1S,2R,4R,5S)-5-bromo-2-[(2-chloro-6-fluorophenyl)methoxy]-1-methyl-4-isopropyl-7-oxabicyclo[2.2.1]heptane]
≥ 80%: inhibition at 75 g/ha (Echinochloa crus-galli [1]) | inhibition at 75 g/ha [2] | inhibition at 75 g/ha (Digitaria ciliaris [3]) | inhibition at 75 g/ha (Echinochloa crus-galli [4]) | pest or weed control at 1200 g/ha (Monochoria vaginalis) | inhibition at 1200 g/ha (Digitaria ciliaris [5]) | inhibition at 1200 g/ha (Echinochloa crus-galli [6]) | inhibition at 1200 g/ha (Digitaria ciliaris [7]) | inhibition at 1200 g/ha (Echinochloa crus-galli [8]) | pest or weed control at 1200 g/ha [9] | pest or weed control at 1200 g/ha (Scirpus juncoides)

Cc1ccccc1CO[C@@H]1C[C@]2(C(C)C)O[C@@]1(C)C[C@@H]2I [1-741, (1S,2R,4R,5S)-5-iodo-1-methyl-2-[(2-methylphenyl)methoxy]-4-isopropyl-7-oxabicyclo[2.2.1]heptane]
≥ 80%: inhibition at 75 g/ha (Echinochloa crus-galli [1]) | inhibition at 75 g/ha [2] | inhibition at 75 g/ha (Digitaria ciliaris [3]) | inhibition at 75 g/ha (Echinochloa crus-galli [4]) | pest or weed control at 1200 g/ha (Monochoria vaginalis) | inhibition at 1200 g/ha (Digitaria ciliaris [5]) | inhibition at 1200 g/ha (Echinochloa crus-galli [6]) | inhibition at 1200 g/ha (Digitaria ciliaris [7]) | inhibition at 1200 g/ha (Echinochloa crus-galli [8]) | pest or weed control at 1200 g/ha [9] | pest or weed control at 1200 g/ha (Scirpus juncoides)

C=CCO[C@@H]1C[C@]2(C)O[C@@]1(C(C)C)C[C@H]2OCc1ccccc1F [1-930, (1S,2R,4R,5R)-2-[(2-fluorophenyl)methoxy]-1-methyl-4-isopropyl-5-prop-2-enoxy-7-oxabicyclo[2.2.1]heptane]
≥ 80%: inhibition at 75 g/ha (Echinochloa crus-galli [1]) | inhibition at 75 g/ha [2] | inhibition at 75 g/ha (Digitaria ciliaris [3]) | inhibition at 75 g/ha (Echinochloa crus-galli [4]) | pest or weed control at 1200 g/ha (Monochoria vaginalis) | inhibition at 1200 g/ha (Digitaria ciliaris [5]) | inhibition at 1200 g/ha (Echinochloa crus-galli [6]) | inhibition at 1200 g/ha (Digitaria ciliaris [7]) | inhibition at 1200 g/ha (Echinochloa crus-galli [8]) | pest or weed control at 1200 g/ha [9] | pest or weed control at 1200 g/ha (Scirpus juncoides)
